{
  "source": "patent US10457654B2",
  "about": "(GENENTECH, INC., priority 2017, dated 2019)",
  "note": "Counter-ions that a name gives are not always drawn.",
  "data": [
    {"target": "hNav1.7 (Homo sapiens (Human), UniProt Q15858)", "sequence (Q15858 whole entry, looked up)": "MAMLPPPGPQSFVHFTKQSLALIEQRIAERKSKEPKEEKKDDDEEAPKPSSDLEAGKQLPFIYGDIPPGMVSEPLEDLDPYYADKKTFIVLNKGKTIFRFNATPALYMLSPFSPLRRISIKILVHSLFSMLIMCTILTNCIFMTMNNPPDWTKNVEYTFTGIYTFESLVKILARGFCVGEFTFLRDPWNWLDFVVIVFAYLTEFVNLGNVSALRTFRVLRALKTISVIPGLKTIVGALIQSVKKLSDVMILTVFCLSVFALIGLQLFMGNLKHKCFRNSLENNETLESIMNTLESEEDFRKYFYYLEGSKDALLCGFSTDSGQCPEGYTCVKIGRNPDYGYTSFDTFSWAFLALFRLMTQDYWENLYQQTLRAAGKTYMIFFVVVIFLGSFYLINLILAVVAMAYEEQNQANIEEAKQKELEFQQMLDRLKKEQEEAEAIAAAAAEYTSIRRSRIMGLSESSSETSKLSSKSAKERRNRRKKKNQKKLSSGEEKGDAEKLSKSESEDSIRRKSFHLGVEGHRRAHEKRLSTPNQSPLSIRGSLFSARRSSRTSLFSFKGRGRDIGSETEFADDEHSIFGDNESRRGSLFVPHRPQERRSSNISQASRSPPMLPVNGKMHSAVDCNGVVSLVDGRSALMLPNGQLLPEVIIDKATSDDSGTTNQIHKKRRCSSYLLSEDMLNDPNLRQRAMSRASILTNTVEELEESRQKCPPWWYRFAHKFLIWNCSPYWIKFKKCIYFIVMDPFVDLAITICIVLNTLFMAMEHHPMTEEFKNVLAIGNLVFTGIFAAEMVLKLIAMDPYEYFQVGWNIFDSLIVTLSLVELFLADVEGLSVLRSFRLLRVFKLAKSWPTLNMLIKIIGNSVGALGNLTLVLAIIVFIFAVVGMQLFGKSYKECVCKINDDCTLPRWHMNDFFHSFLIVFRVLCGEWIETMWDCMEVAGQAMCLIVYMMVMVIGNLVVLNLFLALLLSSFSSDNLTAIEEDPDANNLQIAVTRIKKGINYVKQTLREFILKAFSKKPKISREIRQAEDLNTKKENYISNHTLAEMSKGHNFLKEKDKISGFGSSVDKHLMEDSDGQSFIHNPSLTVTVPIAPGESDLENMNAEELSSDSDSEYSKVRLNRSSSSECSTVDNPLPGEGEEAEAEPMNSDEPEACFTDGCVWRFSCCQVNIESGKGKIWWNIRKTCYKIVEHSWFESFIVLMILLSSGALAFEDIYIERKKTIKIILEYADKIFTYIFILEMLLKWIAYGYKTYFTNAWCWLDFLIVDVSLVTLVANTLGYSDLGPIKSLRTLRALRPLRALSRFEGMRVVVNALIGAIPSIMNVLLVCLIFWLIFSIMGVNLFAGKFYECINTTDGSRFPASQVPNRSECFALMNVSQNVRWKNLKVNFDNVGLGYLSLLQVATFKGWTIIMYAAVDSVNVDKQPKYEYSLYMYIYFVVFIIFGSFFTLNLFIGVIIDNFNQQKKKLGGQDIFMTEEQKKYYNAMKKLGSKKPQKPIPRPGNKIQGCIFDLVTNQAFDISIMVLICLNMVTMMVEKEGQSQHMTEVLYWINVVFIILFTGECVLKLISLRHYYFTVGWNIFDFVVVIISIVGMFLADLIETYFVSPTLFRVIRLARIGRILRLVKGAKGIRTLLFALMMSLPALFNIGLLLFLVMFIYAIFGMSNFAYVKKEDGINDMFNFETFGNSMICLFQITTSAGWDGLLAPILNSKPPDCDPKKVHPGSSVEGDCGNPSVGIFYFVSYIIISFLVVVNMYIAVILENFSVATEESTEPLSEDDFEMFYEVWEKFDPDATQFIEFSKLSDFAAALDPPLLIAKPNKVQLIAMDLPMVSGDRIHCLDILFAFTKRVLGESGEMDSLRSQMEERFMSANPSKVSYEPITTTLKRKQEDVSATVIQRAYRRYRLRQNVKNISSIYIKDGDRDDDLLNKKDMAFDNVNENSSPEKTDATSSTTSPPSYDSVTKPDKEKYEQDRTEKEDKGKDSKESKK", "sequence (Q07699 whole entry partner, looked up)": "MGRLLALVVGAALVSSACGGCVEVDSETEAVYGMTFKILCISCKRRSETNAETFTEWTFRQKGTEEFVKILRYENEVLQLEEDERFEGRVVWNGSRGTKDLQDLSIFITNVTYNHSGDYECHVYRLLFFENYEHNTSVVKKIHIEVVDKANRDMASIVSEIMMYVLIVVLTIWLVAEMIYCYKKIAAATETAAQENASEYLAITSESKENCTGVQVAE", "assay": "Tritiated compound binding to membranes from cells expressing hNav1.7 and the β1 subunit, competitive binding (LBA, Ex. 243A)", "conditions": "100 pM [3H]compound, 18 h, room temperature; read-out: Nav1.7 (LBA) (Ex. 243A)", "protocol": "(§1) Tritiated Compound Binding to Membranes Isolated from Cells that Heterologously Express hNav1.7 and the β1 Subunit\n(§2) Preparation of membranes containing recombinantly expressed sodium channels: Frozen recombinant cell pellets were thawed on ice and diluted to 4 times the cell pellet weight with ice cold 50 mM Tris HCl, pH 7.4 buffer. The cell suspensions were homogenized on ice using a motorized glass dounce homogeniser. Homogenates were further diluted 8.4 times with ice cold 50 mM Tris HCl, pH 7.4 buffer and then centrifuged at 200×g at 4° C. for 15 min. The supernatants were collected and centrifuged at 10000×g at 4° C. for 50 min. […] The homogenized membranes were then processed through a syringe equipped with a 26 gauge needle. Protein concentrations were determined by Bradford Assay and the membranes were stored at −80° C.\n(§3) Radioligand Binding Studies: Saturation experiments. A competitive NaV1.7 inhibitor having a methyl group was tritiated. Three tritiums were incorporated in place of methyl hydrogens to generate [^3H]compound. Binding of this radioligand was performed in 5 mL borosilicate glass test tubes at room temperature. […] Non-specific binding was determined in the presence of 1 μM unlabeled compound. After 18h, the reactants were filtered through GF/C glass fiber filters presoaked in 0.5% w/v polyethylene imine. […] [^3H]compound bound to filters was quantified by liquid scintillation counting.\n(§4) Competitive binding experiments: Binding reactions were performed in 96-well polypropylene plates at room temperature for 18h. In 360 μL, membranes were incubated with 100 pM [^3H]compound and increasing concentrations of Test Compound. Non-specific binding was defined in the presence of 1 μM unlabeled compound. Reactions were transferred and filtered through 96-well glass fiber/C filter plates presoaked with 0.5% polyethylene imine. The filtered reactions were washed 5 times with 200 μL ice cold buffer containing 0.25% BSA. Bound radioactivity was determined by liquid scintillation counting.\n(§5) Data Analysis: For saturation experiments, non-specific binding was subtracted from total binding to provide specific binding and these values were recalculated in terms of pmol ligand bound per mg protein. Saturation curves were constructed and dissociation constants were calculated using the single site ligand binding model: Beq=(Bmax*X)/(X+Kd), where Beq is the amount of ligand bound at equilibrium, Bmax is the maximum receptor density, Kd is the dissociation constant for the ligand, and X is the free ligand concentration. For competition studies percent inhibition was determined and IC50 values were calculated using a 4 parameter logistic model (% inhibition=(A+((B−A)/(1+((x/C)^D)))) using XLfit, where A and B are the maximal and minimum inhibition respectively, C is the IC50 concentration and D is the (Hill) slope.", "units": {"IC50": "µM"}, "values": [
      {"compound": "5-chloro-4-(((1 S,2S)-2-(ethylamino)cyclohexyl)amino)-2-fluoro-N-(pyrimidin-4-yl)benzenesulfonamide [Example 22]", "IC50": 0.0951},
      {"compound": "N[C@H]1CCCC[C@@H]1Nc1cc(F)c(S(=O)(=O)Nc2nccs2)cc1Cl", "note": "[Example 1, 4-(((1S,2S)-2-aminocyclohexyl)amino)-5-chloro-2-fluoro-N-(thiazol-2-yl)benzenesulfonamide]", "IC50": 0.197},
      {"compound": "CN(C)[C@H]1CCCC[C@@H]1Nc1cc(F)c(S(=O)(=O)Nc2nccs2)cc1Cl", "note": "[Example 2, 5-chloro-4-(((1S,2S)-2-(dimethylamino)cyclohexyl)amino)-2-fluoro-N-(thiazol-2-yl)benzenesulfonamide]", "IC50": 0.0382},
      {"compound": "CN[C@H]1CCCC[C@@H]1Nc1cc(F)c(S(=O)(=O)Nc2nccs2)cc1Cl", "note": "[Example 3, 5-chloro-2-fluoro-4-(((1S,2S)-2-(methylamino)cyclohexyl)amino)-N-(thiazol-2-yl)benzenesulfonamide 2,2,2-trifluoroacetate]", "IC50": 0.016},
      {"compound": "CCN[C@H]1CCCC[C@@H]1Nc1cc(F)c(S(=O)(=O)Nc2nccs2)cc1Cl", "note": "[Example 4, 2,2,2-trifluoroacetate]", "IC50": 0.00415},
      {"compound": "O=S(=O)(Nc1nccs1)c1cc(Cl)c(N[C@H]2CCCC[C@@H]2NCc2ccccc2)cc1F", "note": "[Example 5, 4-(((1S,2S)-2-(benzylamino)cyclohexyl)amino)-5-chloro-2-fluoro-N-(thiazol-2-yl)benzenesulfonamide 2,2,2-trifluoroacetate]", "IC50": 0.426},
      {"compound": "CCN(Cc1ccccc1)[C@H]1CCCC[C@@H]1Nc1cc(F)c(S(=O)(=O)Nc2nccs2)cc1Cl", "note": "[Example 6, 4-(((1S,2S)-2-(benzyl(ethyl)amino)cyclohexyl)amino)-5-chloro-2-fluoro-N-(thiazol-2-yl)benzenesulfonamide]", "IC50": 0.994},
      {"compound": "CN(C)[C@H]1CCCC[C@@H]1Oc1cc(F)c(S(=O)(=O)Nc2nccs2)cc1Cl", "note": "[Example 7, 5-chloro-4-(((1S,2S)-2-(dimethylamino)cyclohexyl)oxy)-2-fluoro-N-(thiazol-2-yl)benzenesulfonamide]", "IC50": 0.0899},
      {"compound": "CN(C)[C@@H]1CCCC[C@H]1Oc1cc(F)c(S(=O)(=O)Nc2nccs2)cc1Cl", "note": "[Example 8, 5-chloro-4-(((1R,2R)-2-(dimethylamino)cyclohexyl)oxy)-2-fluoro-N-(thiazol-2-yl)benzenesulfonamide]", "IC50": 3},
      {"compound": "CN(C)[C@H]1CCC[C@@H]1Oc1cc(F)c(S(=O)(=O)Nc2nccs2)cc1Cl", "note": "[Example 9, 5-chloro-4-(((1S,2S)-2-(dimethylamino)cyclopentyl)oxy)-2-fluoro-N-(thiazol-2-yl)benzenesulfonamide]", "IC50": 3},
      {"compound": "CN(C)[C@@H]1CCC[C@H]1Oc1cc(F)c(S(=O)(=O)Nc2nccs2)cc1Cl", "note": "[Example 10, 5-chloro-4-(((1R,2R)-2-(dimethylamino)cyclopentyl)oxy)-2-fluoro-N-(thiazol-2-yl)benzenesulfonamide]", "IC50": 0.553},
      {"compound": "CN(C)[C@H]1CCCC[C@@H]1Nc1cc(F)c(S(=O)(=O)Nc2ccncn2)cc1Cl", "note": "[Example 11, 5-chloro-4-(((1S,2S)-2-(dimethylamino)cyclohexyl)amino)-2-fluoro-N-(pyrimidin-4-yl)benzenesulfonamide]", "IC50": 0.126},
      {"compound": "CN(C)[C@H]1CCC[C@@H]1Nc1cc(F)c(S(=O)(=O)Nc2nccs2)cc1Cl", "note": "[Example 12, 5-chloro-4-(((1S,2S)-2-(dimethylamino)cyclopentyl)amino)-2-fluoro-N-(thiazol-2-yl)benzenesulfonamide]", "IC50": 0.165},
      {"compound": "CN(C)[C@H]1CCCC[C@@H]1Nc1cc(F)c(S(=O)(=O)Nc2ncns2)cc1F", "note": "[Example 13, 4-(((1S,2S)-2-(dimethylamino)cyclohexyl)amino)-2,5-difluoro-N-(1,2,4-thiadiazol-5-yl)benzenesulfonamide formate]", "IC50": 0.357},
      {"compound": "CN(C)[C@H]1CCCC[C@@H]1Nc1cc(F)c(S(=O)(=O)Nc2nccs2)cc1Br", "note": "[Example 14, 5-bromo-4-[[(1S,2S)-2-(dimethylamino)cyclohexyl]amino]-2-fluoro-N-thiazol-2-yl-benzenesulfonamide]", "IC50": 0.0219},
      {"compound": "CN(C)[C@H]1CCCC[C@@H]1Nc1cc(F)c(S(=O)(=O)Nc2nccs2)cc1C1CC1", "note": "[Example 15, 5-cyclopropyl-4-[[(1S,2S)-2-(dimethylamino)cyclohexyl]amino]-2-fluoro-N-thiazol-2-yl-benzenesulfonamide]", "IC50": 0.0269},
      {"compound": "O=S(=O)(Nc1nccs1)c1cc(Cl)c(N[C@H]2CCCC[C@@H]2NC2CCC2)cc1F", "note": "[Example 16, 5-chloro-4-[[(1S,2S)-2-(cyclobutylamino)cyclohexyl]amino]-2-fluoro-N-thiazol-2-yl-benzenesulfonamide]", "IC50": 0.325},
      {"compound": "CCN(CC)[C@H]1CCCC[C@@H]1Nc1cc(F)c(S(=O)(=O)Nc2nccs2)cc1Cl", "note": "[Example 17, 5-chloro-4-[[(1S,2S)-2-(diethylamino)cyclohexyl]amino]-2-fluoro-N-thiazol-2-yl-benzenesulfonamide]", "IC50": 0.237},
      {"compound": "CCN(C)[C@H]1CCCC[C@@H]1Nc1cc(F)c(S(=O)(=O)Nc2nccs2)cc1Cl", "note": "[Example 18, 5-chloro-4-[[(1S,2S)-2-[ethyl(methyl)amino]cyclohexyl]amino]-2-fluoro-N-thiazol-2-yl-benzenesulfonamide]", "IC50": 0.0168},
      {"compound": "CN(C1CC1)[C@H]1CCCC[C@@H]1Nc1cc(F)c(S(=O)(=O)Nc2nccs2)cc1Cl", "note": "[Example 19, 5-chloro-4-[[(1S,2S)-2-[cyclopropyl(methyl)amino]cyclohexyl]amino]-2-fluoro-N-thiazol-2-yl-benzenesulfonamide]", "IC50": 0.0451},
      {"compound": "CN[C@H]1CCCC[C@@H]1N(C)c1cc(F)c(S(=O)(=O)Nc2nccs2)cc1Cl", "note": "[Example 20, 5-chloro-2-fluoro-4-(methyl((1S,2S)-2-(methylamino)cyclohexyl)amino)-N-(thiazol-2-yl)benzenesulfonamide]", "IC50": 0.211},
      {"compound": "O=S(=O)(Nc1nccs1)c1cc(Cl)c(N[C@H]2CCCC[C@@H]2N2CCC2)cc1F", "note": "[Example 21, 4-(((1S,2S)-2-(azetidin-1-yl)cyclohexyl)amino)-5-chloro-2-fluoro-N-(thiazol-2-yl)benzenesulfonamide]", "IC50": 0.214},
      {"compound": "CN(C)[C@H]1CC(C(F)(F)F)=CC[C@@H]1Nc1cc(F)c(S(=O)(=O)Nc2nccs2)cc1Cl", "note": "[Example 23]", "IC50": 0.0084},
      {"compound": "CN(C)[C@H]1CCCC[C@@H]1Oc1cc(F)c(S(=O)(=O)Nc2nccs2)cc1C1CC1", "note": "[Example 24, 5-cyclopropyl-4-[(1S,2S)-2-(dimethylamino)cyclohexoxy]-2-fluoro-N-thiazol-2-yl-benzenesulfonamide]", "IC50": 0.0499},
      {"compound": "CN(C)[C@@H]1CCCC[C@H]1Oc1cc(F)c(S(=O)(=O)Nc2nccs2)cc1C1CC1", "note": "[Example 25, 5-cyclopropyl-4-[(1R,2R)-2-(dimethylamino)cyclohexoxy]-2-fluoro-N-thiazol-2-yl-benzenesulfonamide]", "IC50": 7.42},
      {"compound": "CN(C)[C@H]1CCCC[C@@H]1Nc1cc(F)c(S(=O)(=O)Nc2ncc(Cl)s2)cc1Cl", "note": "[Example 26, 5-chloro-N-(5-chlorothiazol-2-yl)-4-(((1 S,2S)-2-(dimethylamino)cyclohexyl)amino)-2-fluorobenzenesulfonamide]", "IC50": 0.0415},
      {"compound": "Cc1csc(NS(=O)(=O)c2cc(Cl)c(N[C@H]3CCCC[C@@H]3N(C)C)cc2F)n1", "note": "[Example 27, 5-chloro-4-(((1 S,2S)-2-(dimethylamino)cyclohexyl)amino)-2-fluoro-N-(4-methylthiazol-2-yl)benzenesulfonamide formate]", "IC50": 0.149}
    ]},
    {"target": "hNav1.7 (Homo sapiens (Human), UniProt Q15858)", "assay": "Tritiated compound binding to membranes from cells expressing hNav1.7 and the β1 subunit, competitive binding (LBA, Ex. 243A)", "conditions": "100 pM [3H]compound, 18 h, room temperature; read-out: Nav1.7 LBA (Ex. 243A) IC50", "protocol": "as §1, §2, §3, §4, §5", "units": {"IC50": "µM"}, "values": [
      {"compound": "CN(C)[C@H]1CCCC[C@@H]1Nc1ccc(S(=O)(=O)Nc2nccs2)cc1[N+](=O)[O-]", "note": "[Example 28, 4-(((1S,2S)-2-(dimethylamino)cyclohexyl)amino)-3-nitro-N-(thiazol-2-yl)benzenesulfonamide]", "IC50": 0.199},
      {"compound": "CCCN(C)[C@H]1CCCC[C@@H]1Nc1cc(F)c(S(=O)(=O)Nc2nccs2)cc1Cl", "note": "[Example 29, 5-chloro-2-fluoro-4-(((1S,2S)-2-(methyl(propyl)amino)cyclohexyl)amino)-N-(thiazol-2-yl)benzenesulfonamide]", "IC50": 0.0601},
      {"compound": "CN(CC1CC1)[C@H]1CCCC[C@@H]1Nc1cc(F)c(S(=O)(=O)Nc2nccs2)cc1Cl", "note": "[Example 31, 5-chloro-4-(((1S,2S)-2-((cyclopropylmethyl)(methyl)amino)cyclohexyl)amino)-2-fluoro-N-(thiazol-2-yl)benzenesulfonamide]", "IC50": 0.163}
    ]}
  ]
}
